The text below walks through data of PubChem BioAssay (NCI).

“And” between values parts separate entries of the source, which are not always exact repeats. Equal entries are not always repeated.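 Following 48 hours of exposure in 96-well plates, responses at five concentrations were used to interpolate endpoints linearly. At the GI50, growth is halved. TGI marks complete inhibition of growth.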 A value given as a limit tells only on which side of the number the result lay.

Some test systems named below: DU-145 prostate; OVCAR-3 ovarian; SK-MEL-28 melanoma; A498 renal; CAKI-1 renal; SW-620 colon; T-47D breast; HOP-92 NSCLC; HCC-2998 colon; IGROV1 ovarian.
Holding throughout (assay): NCI tumour cell line growth inhibition, 48 h

On to `COc1ccc(Cn2cc3c(c2-c2cc(OC)c(OC)c(OC)c2)CCc2cnoc2-3)cc1[N+](=O)[O-]`, for which the GI50 in the assay on DU-145 prostate was 1.91 µM; in the assay on OVCAR-3 ovarian it was 0.441 µM; with SK-MEL-28 melanoma, 3.39 µM; in the assay on A498 renal, 0.617 µM; in the assay with CAKI-1 renal it was 0.747 µM; in the assay on SW-620 colon, 0.482 µM. The GI50 is 3.58 µM with T-47D breast, 1.07 µM in the assay with HOP-92 NSCLC, 1.93 µM in the assay on HCC-2998 colon and 0.82 µM with IGROV1 ovarian. Also, the TGI was above 21.3 µM in the assay on DU-145 prostate; 3.09 µM in the assay with OVCAR-3 ovarian; above 100 µM in the assay with SK-MEL-28 melanoma; above 60.4 µM with CAKI-1 renal; above 100 µM with SW-620 colon; above 100 µM with T-47D breast. The TGI in the assay with HOP-92 NSCLC was 60.6 µM; with HCC-2998 colon it was above 31.6 µM; in the assay with IGROV1 ovarian, 51.5 µM.

Turning to `CCc1nc(Cl)nc(Cl)c1Cl`, the TGI came to 23.1 µM with DU-145 prostate; 2.08 µM in the assay with OVCAR-3 ovarian; 17.7 µM with SK-MEL-28 melanoma; 25.6 µM with A498 renal; 1.15 µM in the assay with CAKI-1 renal; 5.17 µM in the assay on SW-620 colon. Further, the TGI with T-47D breast was 22 µM; with HOP-92 NSCLC, 5.16 µM; with HCC-2998 colon it was 2.24 µM; in the assay with IGROV1 ovarian it was 13.7 µM.

`COc1ccccc1S(=O)(=O)Nc1ccc2c(c1)CN(C)C(=O)N2`: the GI50 in the assay on DU-145 prostate was 67.4 µM and 33.1 µM; in the assay on OVCAR-3 ovarian, 4.71 µM; in the assay with SK-MEL-28 melanoma it was 5.62 µM and 7.41 µM; with A498 renal it was 1.5 µM and 2.25 µM; in the assay on CAKI-1 renal, 0.994 µM and 3 µM; in the assay with SW-620 colon, 20.3 µM and 14.5 µM. The GI50 in the assay with T-47D breast is 3.27 µM; in the assay with HOP-92 NSCLC, 2.22 µM and 1.18 µM; with HCC-2998 colon, 6.76 µM and 9.52 µM; in the assay on IGROV1 ovarian, 6.42 µM and 5.7 µM. Moreover, the TGI with DU-145 prostate is above 100 µM; in the assay with OVCAR-3 ovarian, above 100 µM; in the assay with SK-MEL-28 melanoma, above 100 µM; in the assay on A498 renal it was 22.6 µM and 10.9 µM; in the assay with CAKI-1 renal it was above 100 µM; in the assay on SW-620 colon, above 100 µM. For the same compound, the TGI in the assay with T-47D breast was above 100 µM; in the assay with HOP-92 NSCLC, > 51.9 µM and 71.6 µM; in the assay on HCC-2998 colon, > 65.1 µM and 81.5 µM; in the assay with IGROV1 ovarian, above 100 µM.

As to `Nc1nnc(Cn2c(-c3ccccc3)nc3ccc(Br)cc3c2=O)s1`, the GI50 is 85.4 µM with DU-145 prostate; 40 µM with OVCAR-3 ovarian; above 100 µM with SK-MEL-28 melanoma; 15.1 µM with A498 renal; 25.1 µM with CAKI-1 renal; 36.1 µM in the assay on SW-620 colon. In addition, the GI50 is above 100 µM in the assay with T-47D breast, 10.8 µM in the assay on HOP-92 NSCLC, 42.6 µM in the assay on HCC-2998 colon and 18.3 µM with IGROV1 ovarian. Also, the TGI in the assay with DU-145 prostate is above 100 µM; with OVCAR-3 ovarian, above 100 µM; with SK-MEL-28 melanoma, above 100 µM; with A498 renal, 74 µM; with CAKI-1 renal it was above 100 µM; with SW-620 colon, above 100 µM. Besides, the TGI in the assay with T-47D breast, in the assay with HOP-92 NSCLC, with HCC-2998 colon and in the assay on IGROV1 ovarian was above 100 µM each time.

Turning to `CC(=O)[O][Hg][c]1ccccc1`, the GI50 with DU-145 prostate was 1.25 µM; in the assay with OVCAR-3 ovarian, 0.147 µM; in the assay on SK-MEL-28 melanoma it was 0.383 µM; in the assay with A498 renal, 1.11 µM; in the assay with CAKI-1 renal it was 0.964 µM; in the assay with SW-620 colon it was 0.215 µM. In addition, the GI50 with T-47D breast was 0.163 µM; in the assay on HOP-92 NSCLC, 0.299 µM; with HCC-2998 colon it was 1.64 µM; in the assay with IGROV1 ovarian, 0.295 µM. In addition, the TGI in the assay on DU-145 prostate came out at 2.72 µM; in the assay with OVCAR-3 ovarian it was 0.295 µM; in the assay on SK-MEL-28 melanoma it was 1.47 µM; in the assay with A498 renal it was 2.37 µM; in the assay on CAKI-1 renal, 2.89 µM; in the assay on SW-620 colon, 0.492 µM. Further, the TGI in the assay on T-47D breast was found to be 0.382 µM; in the assay on HOP-92 NSCLC it was 0.92 µM; with HCC-2998 colon, 3.11 µM; in the assay with IGROV1 ovarian it was 0.934 µM.

As for `COc1ccc(C(=O)c2cc3c(N)c(C(=O)Nc4cccc(Cl)c4C)sc3nc2C)cc1`, the GI50 with DU-145 prostate is 0.105 µM; in the assay with OVCAR-3 ovarian, 0.0872 µM; in the assay with SK-MEL-28 melanoma, above 25 µM; with A498 renal it was 0.0691 µM; with CAKI-1 renal, 0.0995 µM; in the assay on SW-620 colon, 0.105 µM. Also, the GI50 in the assay with T-47D breast is 0.153 µM; with HOP-92 NSCLC, 0.292 µM; in the assay with HCC-2998 colon, 0.28 µM; in the assay with IGROV1 ovarian, 0.145 µM. In addition, the TGI was above 25 µM in the assay on DU-145 prostate; above 25 µM in the assay with OVCAR-3 ovarian; above 25 µM in the assay on SK-MEL-28 melanoma; 0.558 µM in the assay on A498 renal; above 25 µM in the assay on CAKI-1 renal; above 25 µM in the assay on SW-620 colon. The TGI was above 25 µM in the assay with T-47D breast, 6.67 µM in the assay with HOP-92 NSCLC, above 25 µM with HCC-2998 colon and above 25 µM with IGROV1 ovarian.

For the compound `O=C1c2c(O)cc(O)cc2OC(c2ccc(O)cc2O)C1O` (stereo unspecified), the TGI in the assay with DU-145 prostate, in the assay with OVCAR-3 ovarian, in the assay with SK-MEL-28 melanoma, in the assay on A498 renal, in the assay on CAKI-1 renal and with SW-620 colon was above 100 µM each time. Besides, the TGI with T-47D breast, in the assay with HOP-92 NSCLC, in the assay with HCC-2998 colon and with IGROV1 ovarian was above 100 µM each time. The GI50 in the assay on OVCAR-3 ovarian, in the assay with SK-MEL-28 melanoma, in the assay with A498 renal, with SW-620 colon, with HOP-92 NSCLC and in the assay on HCC-2998 colon was above 100 µM throughout. Also, in the assay on IGROV1 ovarian, the GI50 was above 100 µM.

With `C#CCOc1cccc(Nc2ncnc3ccc(NC(=O)CCl)cc23)c1`, the GI50 in the assay with DU-145 prostate was 0.73 µM; in the assay on OVCAR-3 ovarian, 0.908 µM; in the assay with SK-MEL-28 melanoma, 5.15 µM; in the assay with A498 renal it was 4.6 µM; in the assay with CAKI-1 renal, 0.22 µM; in the assay with SW-620 colon it was 0.0614 µM. For the same compound, the GI50 was 3.44 µM in the assay on T-47D breast, 2.9 µM with HOP-92 NSCLC, 3.71 µM in the assay on HCC-2998 colon and 0.164 µM in the assay with IGROV1 ovarian. Also, the TGI in the assay on DU-145 prostate stood at 14.1 µM; with OVCAR-3 ovarian, 7.06 µM; with SK-MEL-28 melanoma, 27 µM; with A498 renal, 21.4 µM; with CAKI-1 renal it was 12.7 µM; with SW-620 colon it was 5.88 µM. In addition, the TGI amounted to 30.9 µM in the assay on T-47D breast, 16.9 µM in the assay on HOP-92 NSCLC, 22.7 µM in the assay on HCC-2998 colon and 2.77 µM with IGROV1 ovarian.

Consider `Cc1ccc(S(=O)(=O)Cc2nc(-c3ccc(C(=O)NCc4cccnc4)cc3)oc2C)cc1`, for which the GI50 in the assay with DU-145 prostate is 0.0907 µM; with OVCAR-3 ovarian, 8.1 µM; in the assay with SK-MEL-28 melanoma, 15.5 µM; in the assay with A498 renal, above 100 µM; in the assay on CAKI-1 renal, 1.87 µM; in the assay on SW-620 colon it was below 0.01 µM. The GI50 in the assay on T-47D breast is 0.287 µM; in the assay with HOP-92 NSCLC it was 13 µM; with HCC-2998 colon, 18.4 µM; with IGROV1 ovarian it was 0.189 µM. For the same compound, the TGI in the assay on DU-145 prostate, in the assay with OVCAR-3 ovarian, in the assay on SK-MEL-28 melanoma, in the assay on A498 renal, in the assay on CAKI-1 renal and in the assay on SW-620 colon was above 100 µM in each case. The TGI with T-47D breast, in the assay with HOP-92 NSCLC, in the assay on HCC-2998 colon and with IGROV1 ovarian was above 100 µM throughout.

Take `CCCCCCCCCCCCOC1C(CNC(=O)C2OC3OC(C)(C)OC3C2NC(=O)CN2CCCCCC2)OC2OC(C)(C)OC21` (stereo unspecified): the GI50 with DU-145 prostate is 8.23 µM; in the assay on OVCAR-3 ovarian, 8.39 µM; in the assay on SK-MEL-28 melanoma it was 1.72 µM; in the assay on A498 renal, 13 µM; with CAKI-1 renal, 13 µM; in the assay on SW-620 colon, 3.38 µM. Also, the GI50 in the assay with T-47D breast was 7.78 µM; in the assay with HOP-92 NSCLC, 9.4 µM; in the assay with HCC-2998 colon, 6 µM; with IGROV1 ovarian it was 5.03 µM. The TGI turned out to be 20.5 µM with DU-145 prostate; 23.8 µM in the assay on OVCAR-3 ovarian; 3.4 µM with SK-MEL-28 melanoma; 26.3 µM in the assay with A498 renal; 26.8 µM in the assay on CAKI-1 renal; 11.1 µM with SW-620 colon. Moreover, the TGI came out at 22.8 µM in the assay with T-47D breast, 22.8 µM in the assay with HOP-92 NSCLC, 19.3 µM in the assay on HCC-2998 colon and 15.2 µM in the assay on IGROV1 ovarian.

Take `CC(=O)OC1CC2C(C)(C)C(=O)C=CC2(C)C2CCC3(C)C(c4ccoc4)OC(=O)C4OC43C12C` (stereo unspecified): the TGI in the assay on DU-145 prostate was 11 µM; in the assay with OVCAR-3 ovarian it was above 100 µM; in the assay on SK-MEL-28 melanoma, above 100 µM; with A498 renal, above 100 µM; with CAKI-1 renal, 31.1 µM; in the assay with SW-620 colon, above 100 µM. The TGI in the assay with T-47D breast was above 100 µM; in the assay on HOP-92 NSCLC, above 100 µM; with HCC-2998 colon it was 14.2 µM; with IGROV1 ovarian, above 100 µM.

Consider `CCC1CCc2nc3sc(C(=O)Nc4ccccc4C)c(N)c3cc2C1` (stereo unspecified), for which the GI50 is 0.485 µM in the assay with DU-145 prostate; 0.351 µM in the assay on OVCAR-3 ovarian; 0.623 µM with SK-MEL-28 melanoma; 0.313 µM in the assay with A498 renal; 0.451 µM in the assay on CAKI-1 renal; 0.388 µM in the assay with SW-620 colon. In addition, the GI50 in the assay on T-47D breast is 0.816 µM; with HOP-92 NSCLC, 0.637 µM; in the assay on HCC-2998 colon, 4.42 µM; in the assay on IGROV1 ovarian, above 100 µM. Besides, the TGI in the assay on DU-145 prostate, in the assay with OVCAR-3 ovarian, in the assay with SK-MEL-28 melanoma, in the assay with A498 renal, with CAKI-1 renal and with SW-620 colon was above 100 µM each time. Further, the TGI in the assay on T-47D breast, in the assay with HOP-92 NSCLC, in the assay on HCC-2998 colon and in the assay on IGROV1 ovarian was above 100 µM each time.
